Laboratory results: patent publication US10413535B2, “Pharmaceutical compositions comprising an integrin ALPHA4 antagonist for use in treating ocular inflammatory conditions” (AXEROVISION, INC., priority 2015, dated 2019)
Like-named read-outs stand apart in the source and are kept apart here.

Assay: Toxicokinetics in 13-week topical ocular rabbit study
Conditions: New Zealand White, in vivo, topical or ocular
Experimental: GW559090A was given to New Zealand White Rabbits by topical ocular administration for 13 weeks. Animals were dosed six or twelve times per day, with one hour between doses. Treatment groups were: (1) vehicle (12 times a day), (2) 30 mg/mL/occasion given six times a day, (3) 50 mg/mL/occasion given six times a day, or (4) 50 mg/mL/occasion, given 12 times a day.
GW559090A was formulated as a stock solution in 25 mM phosphate buffer with 0.5% sodium chloride to provide a 50 mg/mL stock solution, which was used for administration to Groups 3 or 4, or further diluted with 25 mM phosphate buffer with 0.75% sodium chloride to provide a 30 mg/mL solution for administration to Group 2. Control animals were treated with the vehicle for 50 mg/mL solution (25 mM phosphate buffer with 0.5% sodium chloride).
During the 13 week treatment period rabbits received daily topical ocular doses of GW559090A or vehicle at a constant dose volume of 0.06 mL (given 6 or 12 times a day, with one hour between doses). The test article formulation or vehicle was carefully dropped into the partially everted lower eyelid of the right eye from a suitable distance, to prevent contact of the positive displacement pipette with the eye. The lower and upper lids were then gently held together for approximately five seconds, to prevent loss of dose and aid even distribution across the external ocular surface. The un-dosed eye was not manipulated at any time and served as a within animal untreated control site.

[1] = female, 30 mg/mL/occasion, female rabbits, 30 mg/mL, 6 daily doses, Day 1, after the first daily dose
[2] = female, 30 mg/mL/occasion, female rabbits, 30 mg/mL, 6 daily doses, Week 4, after the first daily dose
[3] = female, 30 mg/mL/occasion, female rabbits, 30 mg/mL, 6 daily doses, Week 13, after the first daily dose
[4] = female, 50 mg/mL/occasion, female rabbits, 50 mg/mL, 6 daily doses, Day 1, after the first daily dose
[5] = female, 50 mg/mL/occasion, female rabbits, 50 mg/mL, 6 daily doses, Week 4, after the first daily dose
[6] = female, 50 mg/mL/occasion, female rabbits, 50 mg/mL, 6 daily doses, Week 13, after the first daily dose
[7] = female, 50 mg/mL/occasion, female rabbits, 50 mg/mL, 12 daily doses, Day 1, after the first daily dose
[8] = female, 50 mg/mL/occasion, female rabbits, 50 mg/mL, 12 daily doses, Week 4, after the first daily dose
[9] = female, 50 mg/mL/occasion, female rabbits, 50 mg/mL, 12 daily doses, Week 14, after the first daily dose
[10] = male, 30 mg/mL/occasion, male rabbits, 30 mg/mL, 6 daily doses, Day 1, after the first daily dose
[11] = male, 30 mg/mL/occasion, male rabbits, 30 mg/mL, 6 daily doses, Week 4, after the first daily dose
[12] = male, 30 mg/mL/occasion, male rabbits, 30 mg/mL, 6 daily doses, Week 13, after the first daily dose
[13] = male, 50 mg/mL/occasion, male rabbits, 50 mg/mL, 6 daily doses, Day 1, after the first daily dose
[14] = male, 50 mg/mL/occasion, male rabbits, 50 mg/mL, 6 daily doses, Week 4, after the first daily dose
[15] = male, 50 mg/mL/occasion, male rabbits, 50 mg/mL, 6 daily doses, Week 13, after the first daily dose
[16] = male, 50 mg/mL/occasion, male rabbits, 50 mg/mL, 12 daily doses, Day 1, after the first daily dose
[17] = male, 50 mg/mL/occasion, male rabbits, 50 mg/mL, 12 daily doses, Week 4, after the first daily dose
[18] = male, 50 mg/mL/occasion, male rabbits, 50 mg/mL, 12 daily doses, Week 14, after the first daily dose

Cc1ccccc1OCC(=O)N[C@@H](CC(C)C)C(=O)N[C@@H](Cc1ccc(OC(=O)N2CCC(C(N)=O)CC2)cc1)C(=O)O [GW559090, (2S)-3-[4-({[4-(Aminocarbonyl)-1-piperidinyl]carbonyl}oxy)phenyl]-2-[((2S)-4-methyl-2-{[2-(2-methylphenoxy)acetyl]amino}pentanoyl)amino]propanoic acid] showed a Cmax [1] of 16 ng/mL, a Tmax [1] of 4.98 min and an AUC(0-t) (female, 30 mg/mL/occasion, female rabbits, 30 mg/mL, 6 daily doses, Day 1, read-out: AUC0-1) of 4.19 ng·h/mL. The AUC(0-t) (female, 30 mg/mL/occasion, female rabbits, 30 mg/mL, 6 daily doses, Day 1, read-out: AUC0-24) was 25.1 ng·h/mL, the Cmax [2] was 32.4 ng/mL and the Tmax [2] was 4.98 min. The AUC(0-t) (female, 30 mg/mL/occasion, female rabbits, 30 mg/mL, 6 daily doses, Week 4, read-out: AUC0-1) was 10.6 ng·h/mL, the AUC(0-t) (female, 30 mg/mL/occasion, female rabbits, 30 mg/mL, 6 daily doses, Week 4, read-out: AUC0-24) was 63.6 ng·h/mL and the Cmax [3] was 23.5 ng/mL. It also gave a Tmax [3] of 15 min, an AUC(0-t) (female, 30 mg/mL/occasion, female rabbits, 30 mg/mL, 6 daily doses, Week 13, read-out: AUC0-1) of 9.83 ng·h/mL and an AUC(0-t) (female, 30 mg/mL/occasion, female rabbits, 30 mg/mL, 6 daily doses, Week 13, read-out: AUC0-24) of 59 ng·h/mL. The Cmax [4] was 67.8 ng/mL, the Tmax [4] was 4.98 min and the AUC(0-t) (female, 50 mg/mL/occasion, female rabbits, 50 mg/mL, 6 daily doses, Day 1, read-out: AUC0-1) was 11 ng·h/mL. The AUC(0-t) (female, 50 mg/mL/occasion, female rabbits, 50 mg/mL, 6 daily doses, Day 1, read-out: AUC0-24) was 66 ng·h/mL, the Cmax [5] was 44.4 ng/mL and the Tmax [5] was 4.98 min. The AUC(0-t) (female, 50 mg/mL/occasion, female rabbits, 50 mg/mL, 6 daily doses, Week 4, read-out: AUC0-1) was 12.6 ng·h/mL, the AUC(0-t) (female, 50 mg/mL/occasion, female rabbits, 50 mg/mL, 6 daily doses, Week 4, read-out: AUC0-24) was 75.6 ng·h/mL and the Cmax [6] was 49.7 ng/mL. It also gave a Tmax [6] of 4.98 min, an AUC(0-t) (female, 50 mg/mL/occasion, female rabbits, 50 mg/mL, 6 daily doses, Week 13, read-out: AUC0-1) of 15.7 ng·h/mL and an AUC(0-t) (female, 50 mg/mL/occasion, female rabbits, 50 mg/mL, 6 daily doses, Week 13, read-out: AUC0-24) of 94.2 ng·h/mL. For the same compound, the Cmax [7] was 30.6 ng/mL, the Tmax [7] was 4.98 min and the AUC(0-t) (female, 50 mg/mL/occasion, female rabbits, 50 mg/mL, 12 daily doses, Day 1, read-out: AUC0-1) was 7.3 ng·h/mL. It also gave an AUC(0-t) (female, 50 mg/mL/occasion, female rabbits, 50 mg/mL, 12 daily doses, Day 1, read-out: AUC0-24) of 87.6 ng·h/mL, a Cmax [8] of 56.6 ng/mL and a Tmax [8] of 4.98 min. It also gave an AUC(0-t) (female, 50 mg/mL/occasion, female rabbits, 50 mg/mL, 12 daily doses, Week 4, read-out: AUC0-1) of 13.1 ng·h/mL, an AUC(0-t) (female, 50 mg/mL/occasion, female rabbits, 50 mg/mL, 12 daily doses, Week 4, read-out: AUC0-24) of 157 ng·h/mL and a Cmax [9] of 68 ng/mL. For the same compound, the Tmax [9] was 4.98 min, the AUC(0-t) (female, 50 mg/mL/occasion, female rabbits, 50 mg/mL, 12 daily doses, Week 14, read-out: AUC0-1) was 35.5 ng·h/mL and the AUC(0-t) (female, 50 mg/mL/occasion, female rabbits, 50 mg/mL, 12 daily doses, Week 14, read-out: AUC0-24) was 426 ng·h/mL. The Cmax [10] was 30.8 ng/mL, the Tmax [10] was 4.98 min and the AUC(0-t) (male, 30 mg/mL/occasion, male rabbits, 30 mg/mL, 6 daily doses, Day 1, read-out: AUC0-1) was 7.86 ng·h/mL. It also gave an AUC(0-t) (male, 30 mg/mL/occasion, male rabbits, 30 mg/mL, 6 daily doses, Day 1, read-out: AUC0-24) of 47.2 ng·h/mL, a Cmax [11] of 51.4 ng/mL and a Tmax [11] of 4.98 min. The AUC(0-t) (male, 30 mg/mL/occasion, male rabbits, 30 mg/mL, 6 daily doses, Week 4, read-out: AUC0-1) was 9.23 ng·h/mL, the AUC(0-t) (male, 30 mg/mL/occasion, male rabbits, 30 mg/mL, 6 daily doses, Week 4, read-out: AUC0-24) was 55.4 ng·h/mL and the Cmax [12] was 11.8 ng/mL. For the same compound, the Tmax [12] was 4.98 min, the AUC(0-t) (male, 30 mg/mL/occasion, male rabbits, 30 mg/mL, 6 daily doses, Week 13, read-out: AUC0-1) was 9.1 ng·h/mL and the AUC(0-t) (male, 30 mg/mL/occasion, male rabbits, 30 mg/mL, 6 daily doses, Week 13, read-out: AUC0-24) was 54.6 ng·h/mL. The Cmax [13] was 105 ng/mL, the Tmax [13] was 4.98 min and the AUC(0-t) (male, 50 mg/mL/occasion, male rabbits, 50 mg/mL, 6 daily doses, Day 1, read-out: AUC0-1) was 14.4 ng·h/mL. For the same compound, the AUC(0-t) (male, 50 mg/mL/occasion, male rabbits, 50 mg/mL, 6 daily doses, Day 1, read-out: AUC0-24) was 86.4 ng·h/mL, the Cmax [14] was 80.4 ng/mL and the Tmax [14] was 4.98 min. It also gave an AUC(0-t) (male, 50 mg/mL/occasion, male rabbits, 50 mg/mL, 6 daily doses, Week 4, read-out: AUC0-1) of 17.9 ng·h/mL, an AUC(0-t) (male, 50 mg/mL/occasion, male rabbits, 50 mg/mL, 6 daily doses, Week 4, read-out: AUC0-24) of 107 ng·h/mL and a Cmax [15] of 32.2 ng/mL. The Tmax [15] was 4.98 min, the AUC(0-t) (male, 50 mg/mL/occasion, male rabbits, 50 mg/mL, 6 daily doses, Week 13, read-out: AUC0-1) was 17.6 ng·h/mL and the AUC(0-t) (male, 50 mg/mL/occasion, male rabbits, 50 mg/mL, 6 daily doses, Week 13, read-out: AUC0-24) was 106 ng·h/mL. The Cmax [16] was 66.3 ng/mL, the Tmax [16] was 4.98 min and the AUC(0-t) (male, 50 mg/mL/occasion, male rabbits, 50 mg/mL, 12 daily doses, Day 1, read-out: AUC0-1) was 12.1 ng·h/mL. For the same compound, the AUC(0-t) (male, 50 mg/mL/occasion, male rabbits, 50 mg/mL, 12 daily doses, Day 1, read-out: AUC0-24) was 145 ng·h/mL, the Cmax [17] was 41.4 ng/mL and the Tmax [17] was 4.98 min. It also gave an AUC(0-t) (male, 50 mg/mL/occasion, male rabbits, 50 mg/mL, 12 daily doses, Week 4, read-out: AUC0-1) of 11.6 ng·h/mL, an AUC(0-t) (male, 50 mg/mL/occasion, male rabbits, 50 mg/mL, 12 daily doses, Week 4, read-out: AUC0-24) of 139 ng·h/mL and a Cmax [18] of 38.1 ng/mL. The Tmax [18] was 30 min, the AUC(0-t) (male, 50 mg/mL/occasion, male rabbits, 50 mg/mL, 12 daily doses, Week 14, read-out: AUC0-1) was 19.6 ng·h/mL and the AUC(0-t) (male, 50 mg/mL/occasion, male rabbits, 50 mg/mL, 12 daily doses, Week 14, read-out: AUC0-24) was 235 ng·h/mL.
